This is an account of results in article PMC11862611 (RSC Medicinal Chemistry, 2025).

What is called EC50 is the concentration needed to bring the measured effect to its halfway point.

Test [1] has as its target T1, M5 (h) (antagonist radioligand) (Homo sapiens, UniProt P08912).
T1 construct: purchased Eurofins (contract assay); host or cells: cell membrane homogenates
T1 sequence (P08912 1-532): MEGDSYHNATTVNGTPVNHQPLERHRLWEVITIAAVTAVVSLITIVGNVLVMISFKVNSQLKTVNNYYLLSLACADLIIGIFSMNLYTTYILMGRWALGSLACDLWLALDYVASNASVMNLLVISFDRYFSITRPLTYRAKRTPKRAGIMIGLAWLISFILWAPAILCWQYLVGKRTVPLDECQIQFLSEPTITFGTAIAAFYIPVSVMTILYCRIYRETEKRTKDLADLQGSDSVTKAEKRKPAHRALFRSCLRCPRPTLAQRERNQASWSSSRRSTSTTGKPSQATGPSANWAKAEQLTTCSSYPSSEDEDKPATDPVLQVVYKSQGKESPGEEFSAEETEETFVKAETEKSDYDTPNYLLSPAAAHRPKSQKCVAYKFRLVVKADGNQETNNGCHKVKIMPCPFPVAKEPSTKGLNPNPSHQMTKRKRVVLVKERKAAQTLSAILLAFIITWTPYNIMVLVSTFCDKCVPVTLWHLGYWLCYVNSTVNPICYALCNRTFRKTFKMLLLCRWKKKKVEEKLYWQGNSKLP
Nature of the test: radioligand displacement assay, M5. The test is classed as binding. Here is the method: (§1) 4.2.3.6. Radioligand Binding Assay (Supplemental Figure S3)
(§2) These assays were run by Eurofins under contract to LifeArc FR095-0011887. A representative protocol describing the human histamine H2 receptor (antagonist radioligand) assay is shown below.12 Cell membrane homogenates (24 µg protein) are incubated for 120 min at 22°C with 0.075 nM [125I]APT in the absence or presence of the test compound in a buffer containing 50 mM Na2HPO4/KH2PO4 (pH […]
(§3) 7.4) and 0.05% BSA. […] Following
On the technique in general: Loss of bound radioactivity is the signal in a displacement assay; it reports binding, not function.

For test [2], the system named is L. amazonensis GFP promastigotes. Nature of the test: mouse model of L. amazonensis infection (ear, IL dosing). In kind it is in vivo, BALB/c mice. The conditions noted are these: 1.2 mg kg^−1 IL twice a week for 4 weeks. Here is the method: Consequently, we used IL dosing for this experiment. To enable direct comparison with CF, the same treatment regimen (dose of 1.2 mg kg^−1via IL injection twice a week for 4 weeks starting on DPI) was used for both compounds.
A Weight variation of mice during 28 days of treatment. B Progression of lesion thickness over 28 day treatment period. C Representative photographs of the infected ear for each group taken after completion of treatment, D parasite burden was evaluated by LDA on 36 days post infection. […]
In vivo assays were conducted as previously reported 1. Two month old BALB/c female mice, weighing 20 - 25 g and of approximately the same age were used for the study. For infection of mice, stationary phase GFP L. amazonensis promastigotes were collected, washed and suspended in sterile PBS. A volume of 10 μl of sterile PBS containing 2 x 10^6 parasites was injected into the right ear. […]
Infected ear thicknesses were measured once or twice a week with a caliper gauge, and the lesion sizes were expressed as the difference between the thickness of infected and non-infected ear. On day 41 animals were sacrificed and the fluorescence measured (485 - 528 nm) and parasite load quantified using a limiting dilution assay (LDA).
Data on lesion progression were analysed for statistical significance by using the Dunnett test as part of the one-way ANOVA (GraphPad Prism 8 software). […]

Test [3] concerns panel of neurotransmitter receptors. The test is described as follows: radioligand displacement assay, whole panel. The test is classed as binding, human. Here is the method: as §1, §2, §3
The target in test [4] is T2, M1 (h) (antagonist radioligand) (Homo sapiens, UniProt P11229).
T2 construct: purchased Eurofins (contract assay); host or cells: cell membrane homogenates
T2 sequence (P11229 1-460): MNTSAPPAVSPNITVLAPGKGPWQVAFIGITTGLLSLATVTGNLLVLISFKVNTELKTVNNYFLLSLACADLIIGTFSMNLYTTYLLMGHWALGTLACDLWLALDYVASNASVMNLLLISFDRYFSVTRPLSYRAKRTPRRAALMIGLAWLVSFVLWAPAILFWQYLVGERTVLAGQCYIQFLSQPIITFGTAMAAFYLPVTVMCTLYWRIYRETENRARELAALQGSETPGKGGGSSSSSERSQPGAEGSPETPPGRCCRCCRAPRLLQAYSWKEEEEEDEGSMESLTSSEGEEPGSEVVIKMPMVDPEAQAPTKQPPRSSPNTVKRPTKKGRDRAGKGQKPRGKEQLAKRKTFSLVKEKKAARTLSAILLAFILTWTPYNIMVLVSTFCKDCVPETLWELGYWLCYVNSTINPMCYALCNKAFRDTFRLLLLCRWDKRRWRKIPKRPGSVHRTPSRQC
The test is described as follows: radioligand displacement assay, M1. In kind it is binding. Here is the method: as §1, §2, §3

In test [5] the target is T3, H1 (h) (antagonist radioligand) (Homo sapiens, UniProt P35367).
T3 construct: purchased Eurofins (contract assay); host or cells: cell membrane homogenates
T3 sequence (P35367 whole entry): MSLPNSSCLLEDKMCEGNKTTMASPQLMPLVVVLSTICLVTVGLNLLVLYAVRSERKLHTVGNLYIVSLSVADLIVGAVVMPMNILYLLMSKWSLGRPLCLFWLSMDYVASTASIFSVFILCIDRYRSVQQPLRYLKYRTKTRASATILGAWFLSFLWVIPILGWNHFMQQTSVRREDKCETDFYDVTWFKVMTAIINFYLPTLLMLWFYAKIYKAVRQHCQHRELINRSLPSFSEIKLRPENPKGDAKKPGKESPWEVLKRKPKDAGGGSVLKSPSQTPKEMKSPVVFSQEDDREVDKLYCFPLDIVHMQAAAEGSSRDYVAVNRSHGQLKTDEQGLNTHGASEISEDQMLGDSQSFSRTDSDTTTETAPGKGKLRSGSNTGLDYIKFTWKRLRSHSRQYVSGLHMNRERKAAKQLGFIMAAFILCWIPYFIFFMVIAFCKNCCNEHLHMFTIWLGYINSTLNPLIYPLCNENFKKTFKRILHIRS
Nature of the test: radioligand displacement assay, H1. In kind it is binding. Here is the method: as §1, §2, §3

Another test has as its target T4, 5-HTB2 receptors (Homo sapiens, UniProt P41595).
T4 construct: purchased Eurofins (contract assay); host or cells: cell membrane homogenates
Nature of the test: radioligand displacement assay, 5-HT2B. The test is classed as binding. Here is the method: as §1, §2, §3

The subject of test [6] is L. amazonensis promastigotes. The test is described as follows: anti-promastigote assay, L. amazonensis (resazurin). In kind it is cell-based. The conditions noted are these: Leishmania amazonensis; promastigote parasites (Table 1); read-out: L.amaz EC50. Here is the method:
4.2.3.1. Anti-promastigote assays […]
Protocol 1: L. amazonensis promastigotes in Medium 199 (100 μL at 5 × 105 mL−1) were incubated in 96-well plates with compounds in triplicate (amphotericin B was used as a positive control, and untreated parasites with DMSO as a negative control) at 26 °C for 72 h. Resazurin Solution (10 μL) was then added and the plate incubated at 26 °C for 4 h prior to measurement using a fluorescence plate reader (555 - 585 nm). EC50 values were calculated using sigmoidal regression analysis (GraphPad Prism).
Protocol 2: Same procedure as above with the modification of a 48 h incubation time as opposed to 72 h and Leishmania amazonensis (MHOM/Br/75/JOSEFA) in Schneider’s insect medium in the place of Leishmania amazonensis (MHOM/Br/75/JOSEFA) in Medium 199. […]
well-1 in a 24-well plate with round cover slips and incubated for 24 h at 37 °C and 5% CO2. […]
(In general: Alamar Blue is a resazurin reagent that responds to reducing activity.)

T4 sequence (P41595 whole entry): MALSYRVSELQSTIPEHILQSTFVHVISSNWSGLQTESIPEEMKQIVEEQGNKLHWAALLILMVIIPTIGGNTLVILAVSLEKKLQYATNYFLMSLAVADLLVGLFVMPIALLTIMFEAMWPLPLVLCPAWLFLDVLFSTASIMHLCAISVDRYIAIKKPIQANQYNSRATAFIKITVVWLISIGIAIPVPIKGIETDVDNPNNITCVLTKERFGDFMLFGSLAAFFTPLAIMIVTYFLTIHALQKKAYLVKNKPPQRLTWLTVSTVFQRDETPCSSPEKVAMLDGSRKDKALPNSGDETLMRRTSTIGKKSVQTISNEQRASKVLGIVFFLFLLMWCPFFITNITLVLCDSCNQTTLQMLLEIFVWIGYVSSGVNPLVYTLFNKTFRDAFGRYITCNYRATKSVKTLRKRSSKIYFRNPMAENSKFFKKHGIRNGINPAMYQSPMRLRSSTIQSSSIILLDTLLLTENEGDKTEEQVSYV

Take `C[C@H]1CCCN1CCCO[C@H](c1ccccc1)c1ccc(Cl)cc1` [38l]: the “affinity, radioligand displacement, M5” value in test [1] is “lower affinity”. Further, the lesion growth trends result in test [2] (35 days post-infection) was “similar”. In addition, the “parasitaemia (parasite burden by LDA) versus untreated group” value in test [2] (LDA 36 days post infection) is “statistically significant reduction”. Further, in test [3], the “binding profile across receptor panel” value is “greater selectivity”. Besides, in test [4], the “effective binding, radioligand displacement, M1” value is listed as greater than 40%. Moreover, the “effective binding, radioligand displacement, H1” value in test [5] is greater than 40%. Moreover, the “affinity, radioligand displacement, 5-HTB2” value on 5-HTB2 receptors was “lower affinity”. Besides, the EC50 in test [6] was 0.041 µM.
